This assay concerns the target T1, Syk (Homo sapiens, UniProt P43405).
T1 construct: Purified Syk catalytic domain (aa 356-635 with a C-terminal His-tag purified in-house); His-tag (C); made in house
Put plainly: In vitro Syk kinase activity measured by trFRET. It counts as biochemical. The conditions noted are these: Syk catalytic domain, 0.001 mM ATP. On the procedure:
In Vitro Syk Kinase Activity Measured by Time-Resolved Fluorescence Resonance Energy Transfer (trFRET)
After about 60 min incubation at rt, the reaction was quenched by addition of EDTA (final concentration: 100 mM) and developed by addition of revelation reagents (final approximate concentrations: 30 mM HEPES pH 7.0, 0.06% BSA, 0.006% Tween-20, 0.24 M KF, 80 ng/mL PT66K (europium labeled anti-phosphotyrosine antibody cat #61T66KLB Cisbio, Bedford, Mass.) and 0.6 μg/mL SAXL (Phycolink streptavidin-allophycocyanin acceptor, cat #PJ25S, Prozyme, San Leandro, Calif.). The developed reaction was incubated in the dark either at about 4° C. for about 14 h or for about 60 min at rt, then read via a time-resolved fluorescence detector (Rubystar, BMG) using a 337 nm laser for excitation and monitoring emission wavelengths at 665 nm. Within the linear range of the assay, the observed signal at 665 nm was directly related to phosphorylated product and can be used to calculate the IC50 values.

One may read the IC50 as the concentration needed to halve the response being measured.

With `CC(=O)N1C[C@H](O)C[C@@H]1c1nc(-c2ccc(O[C@H](C)C3CC3)cc2)c2cnc3[nH]ccc3n12` (single isomer, unassigned) [Example #2], the IC50 lay within 30 to 100 nM. As to `CC(=O)N1C[C@H](O)C[C@@H]1c1nc(-c2ccsc2)c2cnc3[nH]ccc3n12` [A.1.1], the IC50 lay in the range of 10 to 30 nM. The result for `CCOc1ccc(-c2nc([C@H]3C[C@@H](O)CN3C(C)=O)n3c2cnc2[nH]ccc23)cc1` [A.1.2, 1-((2R,4R)-2-(3-(4-ethoxyphenyl)-6H-imidazo[1,5-a]pyrrolo[2,3-e]pyrazin-1-yl)-4-hydroxypyrrolidin-1-yl)ethanone] reads 10 to 30 nM.

The compound `CC(=O)N1C[C@H](O)C[C@@H]1c1nc(-c2ccc(OCCn3nccn3)cc2)c2cnc3[nH]ccc3n12` [A.1.3, 1-((2R,4R)-2-(3-(4-(2-(2H-1,2,3-triazol-2-yl)ethoxy)phenyl)-6H-imidazo[1,5-a]pyrrolo[2,3-e]pyrazin-1-yl)-4-hydroxypyrrolidin-1-yl)ethanone] returned an IC50 of 30 to 100 nM. As for `CC(=O)N1C[C@H](O)C[C@@H]1c1nc(-c2ccc(C(F)F)cc2)c2cnc3[nH]ccc3n12` [A.1.5, 1-((2R,4R)-2-(3-(4-(difluoromethyl)phenyl)-6H-imidazo[1,5-a]pyrrolo[2,3-e]pyrazin-1-yl)-4-hydroxypyrrolidin-1-yl)ethanone], the figure is 30 to 100 nM; as for `CC(=O)N1C[C@H](O)C[C@@H]1c1nc(-c2ccc(C3(C)COC3)cc2)c2cnc3[nH]ccc3n12` [A.1.6], below 10 nM. `CC(=O)N1C[C@H](O)C[C@@H]1c1nc(-c2ccc(OCC3(C)COC3)cc2)c2cnc3[nH]ccc3n12` [D.1.1, 1-((2R,4R)-4-hydroxy-2-(3-(4-((3-methyloxetan-3-yl)methoxy)phenyl)-6H-imidazo[1,5-a]pyrrolo[2,3-e]pyrazin-1-yl)pyrrolidin-1-yl)ethanone]: the IC50 lay in the range of 10 to 30 nM.

Consider `CC(=O)N1C[C@H](O)C[C@@H]1c1nc(-c2csc(CO)c2)c2cnc3[nH]ccc3n12` [D.1.2, 1-((2R,4R)-4-hydroxy-2-(3-(5-(hydroxymethyl)thiophen-3-yl)-6H-imidazo[1,5-a]pyrrolo[2,3-e]pyrazin-1-yl)pyrrolidin-1-yl)ethanone], for which the IC50 was in the range of 10 to 30 nM.

In turn, `CC(=O)N1C[C@H](O)C[C@@H]1c1nc(-c2ccc(OCC3CC3)cc2)c2cnc3[nH]ccc3n12` [D.1.3, 1-((2R,4R)-2-(3-(4-(cyclopropylmethoxy)phenyl)-6H-imidazo[1,5-a]pyrrolo[2,3-e]pyrazin-1-yl)-4-hydroxypyrrolidin-1-yl)ethanone] gave a concentration for half-maximal inhibition (IC50) of 10 to 30 nM. For `COc1ccc(-c2nc([C@H]3C[C@@H](O)CN3C(=O)CF)n3c2cnc2[nH]ccc23)cc1` [E.1.1], the IC50 lay in the range of 10 to 30 nM. As for `COCCOc1ccc(-c2nc([C@H]3C[C@@H](O)CN3C(=O)CF)n3c2cnc2[nH]ccc23)cc1` [E.1.2, 2-fluoro-1-((2R,4R)-4-hydroxy-2-(3-(4-(2-methoxyethoxy)phenyl)-6H-imidazo[1,5-a]pyrrolo[2,3-e]pyrazin-1-yl)pyrrolidin-1-yl)ethanone], the figure is 10 to 30 nM; as for `CNc1ccc(-c2nc([C@H]3C[C@@H](O)CN3C(C)=O)n3c2cnc2[nH]ccc23)cc1` [Example #1, 1-((2R,4R)-4-Hydroxy-2-(3-(4-(methylamino)phenyl)-6H-imidazo[1,5-a]pyrrolo[2,3-e]pyrazin-1-yl)pyrrolidin-1-yl)ethanone], 10 to 30 nM; as for `COc1ccc(-c2nc([C@H]3C[C@@H](O)CN3C(C)=O)n3c2cnc2[nH]ccc23)s1` [Example #3, 1-((2R,4R)-4-Hydroxy-2-(3-(5-methoxythiophen-2-yl)-6H-imidazo[1,5-a]pyrrolo[2,3-e]pyrazin-1-yl)pyrrolidin-1-yl)ethanone], 10 to 30 nM.

Take `CC(=O)N1C[C@H](O)C[C@@H]1c1nc(-c2cnc(C(C)(C)C)s2)c2cnc3[nH]ccc3n12` [Example #4, 1-((2R,4R)-2-(3-(2-(tert-Butyl)thiazol-5-yl)-6H-imidazo[1,5-a]pyrrolo[2,3-e]pyrazin-1-yl)-4-hydroxypyrrolidin-1-yl)ethanone]: the IC50 lay within 30 to 100 nM.

For the compound `CC(=O)N1C[C@H](O)C[C@@H]1c1nc(-c2ccc(N3CCO[C@H](C)C3)cc2)c2cnc3[nH]ccc3n12` [Example #5 (R), 1-((2R,4R)-4-hydroxy-2-(3-(4-((R)-2-methylmorpholino)phenyl)-6H-imidazo[1,5-a]pyrrolo[2,3-e]pyrazin-1-yl)pyrrolidin-1-yl)ethanone], the IC50 was below 10 nM.

`CC(=O)N1C[C@H](O)C[C@@H]1c1nc(-c2ccc(N3CCO[C@@H](C)C3)cc2)c2cnc3[nH]ccc3n12` [Example #5 (S), 1-((2R,4R)-4-Hydroxy-2-(3-(4-((S)-2-methylmorpholino)phenyl)-6H-imidazo[1,5-a]pyrrolo[2,3-e]pyrazin-1-yl)pyrrolidin-1-yl)ethanone]: the IC50 was below 10 nM. As for `COCc1ccc(-c2nc([C@H]3C[C@@H](O)CN3C(C)=O)n3c2cnc2[nH]ccc23)cc1` [Example #7, 1-((2R,4R)-4-Hydroxy-2-(3-(4-(methoxymethyl)phenyl)-6H-imidazo[1,5-a]pyrrolo[2,3-e]pyrazin-1-yl)pyrrolidin-1-yl)ethanone], the IC50 lay in the range of 30 to 100 nM. As for `CC(=O)N1C[C@H](O)C[C@@H]1c1nc(-c2ccc(Cn3nccn3)cc2)c2cnc3[nH]ccc3n12` [Example #8, 1-((2R,4R)-2-(3-(4-((2H-1,2,3-Triazol-2-yl)methyl)phenyl)-6H-imidazo[1,5-a]pyrrolo[2,3-e]pyrazin-1-yl)-4-hydroxypyrrolidin-1-yl)ethanone], the figure is 30 to 100 nM; as for `CC(=O)N1C[C@H](O)C[C@@H]1c1nc(-c2ccc(OCC(F)(F)F)cc2)c2cnc3[nH]ccc3n12` [Example #9, 1-((2R,4R)-4-Hydroxy-2-(3-(4-(2,2,2-trifluoroethoxy)phenyl)-6H-imidazo[1,5-a]pyrrolo[2,3-e]pyrazin-1-yl)pyrrolidin-1-yl)ethanone], 30 to 100 nM.

Compound `CC(=O)N1C[C@H](O)C[C@@H]1c1nc(-c2ccc(NC(C)C)cc2)c2cnc3[nH]ccc3n12` [Example #10, 1-((2R,4R)-4-Hydroxy-2-(3-(4-(isopropylamino)phenyl)-6H-imidazo[1,5-a]pyrrolo[2,3-e]pyrazin-1-yl)pyrrolidin-1-yl)ethanone] yielded an IC50 of 10 to 30 nM. Regarding `CC(=O)N1C[C@H](O)C[C@@H]1c1nc(-c2ccc(NC(C)C)cc2)c2cnc3[nH]cc(C)c3n12` [Example #11, 1-((2R,4R)-4-Hydroxy-2-(3-(4-(isopropylamino)phenyl)-8-methyl-6H-imidazo[1,5-a]pyrrolo[2,3-e]pyrazin-1-yl)pyrrolidin-1-yl)ethanone], the IC50 was in the range of 30 to 100 nM. As for `CC(=O)N1C[C@H](O)C[C@@H]1c1nc(-c2ccc(C(F)(F)F)cc2)c2cnc3[nH]ccc3n12` [Example #A.1.4, 1-((2R,4R)-4-hydroxy-2-(3-(4-(trifluoromethyl)phenyl)-6H-imidazo[1,5-a]pyrrolo[2,3-e]pyrazin-1-yl)pyrrolidin-1-yl)ethanone], the figure is 30 to 100 nM. Compound `CCNc1ccc(-c2nc([C@H]3C[C@@H](O)CN3C(C)=O)n3c2cnc2[nH]ccc23)cc1` [Example #F.1, 1-((2R,4R)-2-(3-(4-(ethylamino)phenyl)-6H-imidazo[1,5-a]pyrrolo[2,3-e]pyrazin-1-yl)-4-hydroxypyrrolidin-1-yl)ethanone] displayed an IC50 of 10 to 30 nM.

(Values after patent US20140315883A1, “6H-IMIDAZO[1,5-a]PYRROLO[2,3-e]PYRAZINE COMPOUNDS” (ABBVIE INC., priority 2013, published 2014).)
